# Values quoted from earlier work, collected in US11077096B2, “Modified release compositions comprising tacrolimus” (Veloxis Pharmaceuticals A/S, priority 2003, dated 2021).
# How the values were obtained:
# [1] = not given; remark: listed apart in the source
smiles,measurement,setting,value
C=CC[C@@H]1/C=C(\C)C[C@H](C)C[C@H](OC)[C@H]2O[C@@](O)(C(=O)C(=O)N3CCCC[C@H]3C(=O)OC(/C(C)=C/[C@@H]3CC[C@@H](O)[C@H](OC)C3)[C@H](C)[C@@H](O)CC1=O)[C@H](C)C[C@@H]2OC (stereo partly drawn) [Tacrolimus],bioavailability,after oral administration,≤ 20%
same,mean time-to-peak concentration (tmax),"oral administration, healthy subjects or kidney or liver transplanted patients",1 to 2 h
same,Solubility in chloroform,[1]; chloroform,very soluble
same,Solubility in ethanol,[1]; ethanol,freely soluble
same,Solubility in methanol,[1]; methanol,very soluble
same,Solubility in water,[1]; water,practically insoluble
